Measurements as given in BindingDB's records for doi:10.1021/jm980314l (Tanabe Seiyaku, 1999).
Where a name gives a salt, the structure may show the parent alone.

molecular target: cGMP-specific 3',5'-cyclic phosphodiesterase PDE5 (Cavia porcellus); assay: Inhibition of Phosphodiesterase 5 of guinea pig lung

IC50 [µM] | SMILES
20 | COc1cc2cc(CO)c(CO)c(-c3ccnc(-n4ccc(=O)c5ccccc54)c3)c2cc1OC [1-[4-(2,3-Bis-hydroxymethyl-6,7-dimethoxy-naphthalen-1-yl)-pyridin-2-yl]-1H-quinolin-4-one]
40 | COc1cc2cc(CO)c(CO)c(-c3ccc(-n4nc(-c5cccnc5)c5ccccc5c4=O)nc3)c2cc1OC [2-[5-(2,3-Bis-hydroxymethyl-6,7-dimethoxy-naphthalen-1-yl)-pyridin-2-yl]-4-pyridin-3-yl-2H-phthalazin-1-one; hydrochloride]
1 | CCOc1cc2cc(CO)c(CO)c(-c3ccnc(-n4nc(-c5cccnc5)c5ccccc5c4=O)c3)c2cc1OC [2-[4-(6-Ethoxy-2,3-bis-hydroxymethyl-7-methoxy-naphthalen-1-yl)-pyridin-2-yl]-4-pyridin-3-yl-2H-phthalazin-1-one; hydrochloride]
0.2 | CCOc1cc2cc(CO)c(CO)c(-c3ccnc(-n4nc(-c5cccnc5)c5ccccc5c4=O)c3)c2cc1OCC [2-[4-(6,7-Diethoxy-2,3-bis-hydroxymethyl-naphthalen-1-yl)-pyridin-2-yl]-4-pyridin-3-yl-2H-phthalazin-1-one; hydrochloride]
40 | COc1cc2cc(CO)c(CO)c(-c3ccnc(-n4ccccc4=O)c3)c2cc1OC [4'-(2,3-Bis-hydroxymethyl-6,7-dimethoxy-naphthalen-1-yl)-[1,2']bipyridinyl-2-one]
9 | COc1cc2cc(CO)c(CO)c(-c3ccnc(-n4nc(-c5ccccn5)c5ccccc5c4=O)c3)c2cc1OC [2-[4-(2,3-Bis-hydroxymethyl-6,7-dimethoxy-naphthalen-1-yl)-pyridin-2-yl]-4-pyridin-2-yl-2H-phthalazin-1-one; hydrochloride]
4 | COc1cc2cc(CO)c(CO)c(-c3ccnc(-n4nc(-c5cccnc5)c5ccccc5c4=O)c3)c2cc1OC [2-[4-(2,3-Bis-hydroxymethyl-6,7-dimethoxy-naphthalen-1-yl)-pyridin-2-yl]-4-pyridin-3-yl-2H-phthalazin-1-one; hydrochloride]
10 | O=c1c2ccccc2c(-c2cccnc2)nn1-c1cc(-c2c(CO)c(CO)cc3ccccc23)ccn1 [2-[4-(2,3-Bis-hydroxymethyl-naphthalen-1-yl)-pyridin-2-yl]-4-pyridin-3-yl-2H-phthalazin-1-one; hydrochloride]
